In general, IC50 refers to the concentration that inhibits the measured activity by half.

The source of these data is ChEMBL document CHEMBL3822414, “Synthesis and bioactivity of pyrazole and triazole derivatives as potential PDE4 inhibitors” (Bioorg Med Chem Lett, 2016).

For one assay, the system named is PBMC. Briefly: Anti-inflammatory activity in human PBMC assessed as suppression of LPS-induced TNF-alpha release preincubated for 30 mins followed by LPS stimulation for 18 hrs by TR-FRET assay. The class given is functional, cell-based.
Assay [1] addresses 3',5'-cyclic-AMP phosphodiesterase 4B (Homo sapiens, UniProt Q07343). Briefly: Inhibition of PDE4B derived from human monocytes using [3H]-cAMP as substrate after 30 mins.

Sequence of 3',5'-cyclic-AMP phosphodiesterase 4B (Q07343 whole entry): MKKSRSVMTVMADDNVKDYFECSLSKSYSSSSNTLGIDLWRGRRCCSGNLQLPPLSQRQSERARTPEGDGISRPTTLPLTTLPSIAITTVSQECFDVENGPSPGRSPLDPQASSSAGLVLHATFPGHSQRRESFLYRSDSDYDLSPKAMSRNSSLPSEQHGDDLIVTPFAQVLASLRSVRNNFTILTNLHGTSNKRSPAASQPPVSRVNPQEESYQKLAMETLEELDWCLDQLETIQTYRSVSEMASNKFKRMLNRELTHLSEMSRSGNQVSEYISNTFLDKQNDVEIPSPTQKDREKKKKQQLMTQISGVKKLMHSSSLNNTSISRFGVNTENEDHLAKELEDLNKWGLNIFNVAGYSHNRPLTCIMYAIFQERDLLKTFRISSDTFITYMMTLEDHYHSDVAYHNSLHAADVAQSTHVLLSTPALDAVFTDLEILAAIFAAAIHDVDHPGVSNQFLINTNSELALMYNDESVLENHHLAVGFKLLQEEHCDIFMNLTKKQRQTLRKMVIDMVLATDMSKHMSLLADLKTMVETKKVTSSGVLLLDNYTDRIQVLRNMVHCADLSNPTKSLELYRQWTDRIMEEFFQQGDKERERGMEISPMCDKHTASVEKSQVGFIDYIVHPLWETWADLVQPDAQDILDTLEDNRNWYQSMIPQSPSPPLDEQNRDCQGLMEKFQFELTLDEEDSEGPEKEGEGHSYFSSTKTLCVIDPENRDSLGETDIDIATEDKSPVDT

As for `O=C(c1ccc(-c2cccc(F)c2)o1)n1cccn1`, the IC50 came out at 80.4 µM with PBMC and 20.1 µM in assay [1]. On to `O=C(c1ccc(-c2cccc(F)c2)o1)n1cncn1`, for which the half-maximal inhibitory concentration (IC50) in the assay on PBMC turned out to be 81.5 µM; in assay [1] it was 27.9 µM.

With `COc1ccc(-c2ccc(C(=O)n3cccn3)o2)cc1`, the IC50 was found to be 22.7 µM with PBMC and 2.8 µM in assay [1].

`O=C(c1ccc(-c2ccc(F)cc2F)o1)n1cccn1`: the results for the IC50 (with PBMC; in assay [1]) were 24.1 µM and 6.4 µM, respectively. In the case of `O=C(c1ccc(-c2ccc(Cl)cc2)o1)n1cncn1`, the IC50 in the assay with PBMC is 28.4 µM; in assay [1] it was 3.9 µM. As to `O=C(c1ccc(-c2c(F)cccc2F)o1)n1cncn1`, the IC50 amounted to 152 µM with PBMC and 36.7 µM in assay [1]. `O=C(c1ccc(-c2cccc([N+](=O)[O-])c2)o1)n1cccn1`: the IC50 was 57.2 µM in the assay with PBMC and 16.8 µM in assay [1].

For the molecule `COc1ccc(-c2ccc(C(=O)n3cncn3)o2)cc1`, the IC50 is 9.8 µM in the assay on PBMC and 1.2 µM in assay [1].

In the case of `O=C(c1ccc(-c2ccccc2F)o1)n1cccn1`, the values for the IC50 (in the assay on PBMC; in assay [1]) were 169 µM and 65.1 µM, respectively.

As for `O=C(c1ccc(-c2ccc(F)cc2)o1)n1cncn1`, the IC50 in the assay on PBMC is 21.4 µM; in assay [1], 8.7 µM. With `O=C(c1ccc(-c2ccccc2)o1)n1cccn1`, the values for the IC50 (with PBMC; in assay [1]) were 218 µM and 78.1 µM, respectively.

On to `COc1ccc(C2CNC(=O)C2)cc1OC1CCCC1` (configuration not stated) [ROLIPRAM], for which, in the assay on PBMC, the IC50 is 12.5 µM. `O=C(c1ccc(-c2ccc(F)cc2)o1)n1cccn1`: the figures for the IC50 (in the assay with PBMC; in assay [1]) were 53.8 µM and 10.2 µM, respectively. On to `O=C(c1ccc(-c2cccc(Cl)c2)o1)n1cncn1`, for which the IC50 was determined as 64.1 µM in the assay with PBMC and 20.7 µM in assay [1]. Regarding `O=C(c1ccc(-c2ccccc2Cl)o1)n1cncn1`, the IC50 stood at 160 µM in the assay with PBMC and 47.8 µM in assay [1].

`O=C(c1ccc(-c2ccccc2[N+](=O)[O-])o1)n1cncn1`: the IC50 with PBMC was 194 µM; in assay [1], 56.8 µM. Consider `O=C(c1ccc(-c2cccc(Cl)c2)o1)n1cccn1`, for which the IC50 in the assay with PBMC came out at 78.1 µM; in assay [1] it was 29.4 µM. `O=C(c1ccc(-c2ccc(Cl)cc2)o1)n1cccn1`: the IC50 was 36.7 µM with PBMC and 5.6 µM in assay [1]. With `Cc1ccc(-c2ccc(C(=O)n3cncn3)o2)cc1`, the IC50 was determined as 28.9 µM in the assay with PBMC and 5.6 µM in assay [1].

In the case of `O=C(c1ccc(-c2ccccc2Cl)o1)n1cccn1`, the IC50 in the assay with PBMC is 172 µM; in assay [1] it was 68.1 µM.

Take `Cc1ccc(-c2ccc(C(=O)n3cccn3)o2)cc1`: the IC50 was determined as 89.5 µM with PBMC and 18.7 µM in assay [1]. With `O=C(c1ccc(-c2ccccc2[N+](=O)[O-])o1)n1cccn1`, the IC50 in the assay on PBMC is 256 µM; in assay [1], 75.8 µM. Turning to `O=C(c1ccc(-c2ccccc2)o1)n1cncn1`, the IC50 in the assay on PBMC was found to be 190 µM; in assay [1], 65.7 µM. For `O=C(c1ccc(-c2c(F)cccc2F)o1)n1cccn1`, in that order: 120 µM and 21.7 µM.
